Source: patent US4240964A, “2-(O-Hydroxyphenyl)-pyrrole and process for its preparation” (BASF Aktiengesellschaft, priority 1978, dated 1980)
Where a name gives a salt, the structure may show the parent alone.

Experiments:
[1] = system: isoproterenol-induced tachycardia (β1); assay: β1-sympatholytic action: inhibition of isoproterenol-induced tachycardia in pithed rats; assay type: in vivo, rats (Sprague-Dawley, Rattus norvegicus); conditions: for ED50: Rattus norvegicus, 5 min, isoproterenol 0.1 ug/kg i.v. before and 5 minutes after test substance, read-out: β1-sympatholytic action ED 50% (dose which inhibits the isoproterenol-induced tachycardia by 50%); for β1-sympatholytic activity, times greater than propranolol: comparison with propranolol
Method: The β-sympatholytic action was tested on rats, in comparison with the known β-sympatholytic agent propranolol (1-isopropylamino)-1-naphthyloxy-2-propanol.HC1).
^1 Inhibition of isoproterenolinduced tachycardia in pithed rats.
Intravenous administration
^2 Dose which inhibits the isoproterenolinduced tachycardia by 50%

[2] = for Therapeutic range, absolute (LD 50 / ED 50%): LD 50 i.p. mice, ED 50% i.v. rats; for Therapeutic range (LD 50 / ED 50%), times greater than propranolol: comparison with propranolol; for Therapeutic range, relative (Propranolol = 1.00): relative to propranolol
Method: Isoproternol was administered before, and 5 minutes after, the intravenous administration of the test substances.

[3] = in vivo; conditions: mouse, ip

SMILES	R.A. (relative activity, Propranolol = 1.00), β1-sympatholytic action ([1]; intravenous, pithed rats, relative to propranolol)	ED50 ([1]; intravenous, pithed rats)	β1-sympatholytic activity, times greater than propranolol [1]	Therapeutic range, absolute (LD 50 / ED 50%) [2]	Therapeutic range (LD 50 / ED 50%), times greater than propranolol [2]	Therapeutic range, relative (Propranolol = 1.00) [2]	LD50 at 24 h [3]
CC(C)NCC(O)COc1cccc2ccccc12 (stereo not shown) [Propranolol, reference compound]	1.00	–	–	–	–	–	–
CC(C)(C)NCC(O)COc1ccccc1-c1ccc[nH]1.O=C(O)/C=C/C(=O)O (stereo not shown) [Example II, 2-[2-(3-tert.-butylamino-2-hydroxypropoxy)-phenyl]-pyrrole fumarate]	–	2.27 µg/kg	5.6 times	767	7 times	6.91	165 mg/kg
CC(C)NCC(O)COc1ccccc1-c1ccc[nH]1 (stereo not shown) [Example III, 2-[2-(3-isopropylamino-2-hydroxypropoxy)-phenyl]-pyrrole fumarate hemihydrate]	–	4 µg/kg	3.2 times	452	4 times	4.07	97.2 mg/kg
